Laboratory results published in ChEMBL document CHEMBL2440076, “New triarylpyrazoles as broad-spectrum anticancer agents: design, synthesis, and biological evaluation” (Eur J Med Chem, 2013).

Key:
Type in all cases: functional
[1] = system: SF-539; test: Growth inhibition of human SF539 cells assessed as cell growth at 5X10'-5 M after 48 hrs by sulforhodamine B assay; conditions: SF-539, 48 h, read-out: Activity
[2] = system: KM12; test: Growth inhibition of human KM12 cells assessed as cell growth at 5X10'-5 M after 48 hrs by sulforhodamine B assay; conditions: KM12, 48 h, read-out: Activity
[3] = system: HCT-116; test: Growth inhibition of human HCT116 cells assessed as cell growth at 5X10'-5 M after 48 hrs by sulforhodamine B assay; conditions: HCT-116, 48 h, read-out: Activity
[4] = system: NCI-H23; test: Growth inhibition of human NCI-H23 cells assessed as cell growth at 5X10'-5 M after 48 hrs by sulforhodamine B assay; conditions: NCI-H23, 48 h, read-out: Activity
[5] = system: SR; test: Growth inhibition of human SR cells assessed as cell growth at 5X10'-5 M after 48 hrs by sulforhodamine B assay; conditions: read-out: Activity
[6] = system: MDA-MB-435; test: Growth inhibition of human MDA-MB-435 cells assessed as cell growth at 5X10'-6 M after 48 hrs by sulforhodamine B assay; conditions: MDA-MB-435, 48 h, read-out: Activity
[7] = system: NCI-H460; test: Growth inhibition of human NCI-H460 cells assessed as cell growth at 5X10'-9 M after 48 hrs by sulforhodamine B assay; conditions: NCI-H460, 48 h, read-out: Activity
[8] = system: SR; test: Growth inhibition of human SR cells assessed as cell growth at 5X10'-9 M after 48 hrs by sulforhodamine B assay; conditions: read-out: Activity
[9] = system: RPMI-8226; test: Growth inhibition of human RPMI8226 cells assessed as cell growth at 5X10'-9 M after 48 hrs by sulforhodamine B assay; conditions: RPMI-8226, 48 h, read-out: Activity
[10] = system: SF-539; test: Growth inhibition of human SF539 cells assessed as cell growth at 5X10'-6 M after 48 hrs by sulforhodamine B assay; conditions: SF-539, 48 h, read-out: Activity
[11] = system: HOP-92; test: Growth inhibition of human HOP92 cells assessed as cell growth at 5X10'-6 M after 48 hrs by sulforhodamine B assay; conditions: HOP-92, 48 h, read-out: Activity
[12] = system: SR; test: Growth inhibition of human SR cells assessed as cell growth at 5X10'-6 M after 48 hrs by sulforhodamine B assay; conditions: read-out: Activity
[13] = system: MDA-MB-468; test: Growth inhibition of human MDA-MB-468 cells assessed as cell growth at 5X10'-7 M after 48 hrs by sulforhodamine B assay; conditions: MDA-MB-468, 48 h, read-out: Activity
[14] = system: RXF 393; test: Growth inhibition of human RXF393 cells assessed as cell growth at 5X10'-7 M after 48 hrs by sulforhodamine B assay; conditions: RXF 393, 48 h, read-out: Activity
[15] = system: OVCAR-4; test: Growth inhibition of human OVCAR4 cells assessed as cell growth at 5X10'-7 M after 48 hrs by sulforhodamine B assay; conditions: OVCAR-4, 48 h, read-out: Activity
[16] = system: SK-MEL-2; test: Growth inhibition of human SK-MEL-2 cells assessed as cell growth at 5X10'-7 M after 48 hrs by sulforhodamine B assay; conditions: SK-MEL-2, 48 h, read-out: Activity
[17] = system: HOP-62; test: Growth inhibition of human HOP62 cells assessed as cell growth at 5X10'-7 M after 48 hrs by sulforhodamine B assay; conditions: HOP-62, 48 h, read-out: Activity
[18] = system: A498; test: Growth inhibition of human A498 cells assessed as cell growth at 5X10'-8 M after 48 hrs by sulforhodamine B assay; conditions: A498, 48 h, read-out: Activity
[19] = system: 786-0; test: Growth inhibition of human 786-0 cells assessed as cell growth at 5X10'-8 M after 48 hrs by sulforhodamine B assay; conditions: 786-0, 48 h, read-out: Activity
[20] = system: OVCAR-4; test: Growth inhibition of human OVCAR4 cells assessed as cell growth at 5X10'-8 M after 48 hrs by sulforhodamine B assay; conditions: OVCAR-4, 48 h, read-out: Activity
[21] = system: IGROV-1; test: Growth inhibition of human IGROV1 cells assessed as cell growth at 5X10'-8 M after 48 hrs by sulforhodamine B assay; conditions: IGROV-1, 48 h, read-out: Activity
[22] = system: M14; test: Growth inhibition of human M14 cells assessed as cell growth at 5X10'-8 M after 48 hrs by sulforhodamine B assay; conditions: M14, 48 h, read-out: Activity
[23] = system: SNB-75; test: Growth inhibition of human SNB75 cells assessed as cell growth at 5X10'-8 M after 48 hrs by sulforhodamine B assay; conditions: SNB-75, 48 h, read-out: Activity
[24] = system: SW-620; test: Growth inhibition of human SW620 cells assessed as cell growth at 5X10'-8 M after 48 hrs by sulforhodamine B assay; conditions: SW-620, 48 h, read-out: Activity
[25] = system: KM12; test: Growth inhibition of human KM12 cells assessed as cell growth at 5X10'-8 M after 48 hrs by sulforhodamine B assay; conditions: KM12, 48 h, read-out: Activity
[26] = system: MDA-MB-468; test: Growth inhibition of human MDA-MB-468 cells assessed as cell growth at 5X10'-5 M after 48 hrs by sulforhodamine B assay; conditions: MDA-MB-468, 48 h, read-out: Activity
[27] = system: MCF7; test: Growth inhibition of human MCF7 cells assessed as cell growth at 5X10'-5 M after 48 hrs by sulforhodamine B assay; conditions: MCF7, 48 h, read-out: Activity
[28] = system: RXF 393; test: Growth inhibition of human RXF393 cells assessed as cell growth at 5X10'-5 M after 48 hrs by sulforhodamine B assay; conditions: RXF 393, 48 h, read-out: Activity
[29] = system: 786-0; test: Growth inhibition of human 786-0 cells assessed as cell growth at 5X10'-5 M after 48 hrs by sulforhodamine B assay; conditions: 786-0, 48 h, read-out: Activity
[30] = system: OVCAR-4; test: Growth inhibition of human OVCAR4 cells assessed as cell growth at 5X10'-5 M after 48 hrs by sulforhodamine B assay; conditions: OVCAR-4, 48 h, read-out: Activity
[31] = system: OVCAR-3; test: Growth inhibition of human OVCAR3 cells assessed as cell growth at 5X10'-5 M after 48 hrs by sulforhodamine B assay; conditions: OVCAR-3, 48 h, read-out: Activity
[32] = system: SK-MEL-2; test: Growth inhibition of human SK-MEL-2 cells assessed as cell growth at 5X10'-5 M after 48 hrs by sulforhodamine B assay; conditions: SK-MEL-2, 48 h, read-out: Activity
[33] = system: COLO 205; test: Growth inhibition of human COLO205 cells assessed as cell growth at 5X10'-8 M after 48 hrs by sulforhodamine B assay; conditions: COLO 205, 48 h, read-out: Activity
[34] = system: HOP-92; test: Growth inhibition of human HOP92 cells assessed as cell growth at 5X10'-8 M after 48 hrs by sulforhodamine B assay; conditions: HOP-92, 48 h, read-out: Activity
[35] = system: ACHN; test: Growth inhibition of human ACHN cells assessed as cell growth at 5X10'-9 M after 48 hrs by sulforhodamine B assay; conditions: read-out: Activity
[36] = system: A498; test: Growth inhibition of human A498 cells assessed as cell growth at 5X10'-9 M after 48 hrs by sulforhodamine B assay; conditions: A498, 48 h, read-out: Activity
[37] = system: SK-OV-3; test: Growth inhibition of human SKOV3 cells assessed as cell growth at 5X10'-9 M after 48 hrs by sulforhodamine B assay; conditions: SK-OV-3, 48 h, read-out: Activity
[38] = system: SW-620; test: Growth inhibition of human SW620 cells assessed as cell growth at 5X10'-9 M after 48 hrs by sulforhodamine B assay; conditions: SW-620, 48 h, read-out: Activity

SMILES	growth at 50 µM [1]	growth at 50 µM [2]	growth at 50 µM [3]	growth at 50 µM [4]	growth at 50 µM [5]	growth at 5 µM [6]	growth at 0.005 µM [7]	growth at 0.005 µM [8]	growth at 0.005 µM [9]	growth at 5 µM [10]	growth at 5 µM [11]	growth at 5 µM [12]	growth at 0.5 µM [13]	growth at 0.5 µM [14]	growth at 0.5 µM [15]	growth at 0.5 µM [16]	growth at 0.5 µM [17]	growth at 0.05 µM [18]	growth at 0.05 µM [19]	growth at 0.05 µM [20]	further results
COc1cc(-c2nn(-c3cccc(NC(=O)c4cccc(C(F)(F)F)c4)c3)cc2-c2ccncc2)ccc1Cl	-23%	7%	9%	-3%	-2%	-56%	100%	96%	98%	-41%	-14%	-3%	89%	68%	81%	91%	97%	80%	98%	98%	growth at 0.05 µM [21]: 95%; growth at 0.05 µM [22]: 94%; growth at 0.05 µM [23]: 89%; growth at 0.05 µM [24]: 98%; growth at 0.05 µM [25]: 95%; growth at 50 µM [26]: -32%; growth at 50 µM [27]: 9%; growth at 50 µM [28]: -2%; growth at 50 µM [29]: 3%; growth at 50 µM [30]: 29%; growth at 50 µM [31]: -38%; growth at 50 µM [32]: 6%; growth at 0.05 µM [33]: 101%; growth at 0.05 µM [34]: 81%; growth at 0.005 µM [35]: 103%; growth at 0.005 µM [36]: 78%; growth at 0.005 µM [37]: 96%; growth at 0.005 µM [38]: 99%
COc1cc(-c2nn(-c3cccc(NC(=O)Nc4cc(C(F)(F)F)cc(C(F)(F)F)c4)c3)cc2-c2ccncc2)ccc1Cl	-78%	-68%	-67%	-59%	-5%	-57%	99%	102%	99%	-74%	-52%	-9%	41%	82%	73%	105%	93%	82%	102%	92%	growth at 0.05 µM [21]: 105%; growth at 0.05 µM [22]: 107%; growth at 0.05 µM [23]: 90%; growth at 0.05 µM [24]: 95%; growth at 0.05 µM [25]: 107%; growth at 50 µM [26]: -53%; growth at 50 µM [27]: -5%; growth at 50 µM [28]: -65%; growth at 50 µM [29]: -63%; growth at 50 µM [30]: -21%; growth at 50 µM [31]: -78%; growth at 50 µM [32]: -84%; growth at 0.05 µM [33]: 102%; growth at 0.05 µM [34]: 67%; growth at 0.005 µM [35]: 104%; growth at 0.005 µM [36]: 90%; growth at 0.005 µM [37]: 102%; growth at 0.005 µM [38]: 98%
COc1cc(-c2nn(-c3cccc(NC(=O)Nc4ccc(Cl)c(Cl)c4)c3)cc2-c2ccncc2)ccc1Cl	-37%	-50%	2%	-9%	-26%	-39%	102%	99%	96%	-21%	-40%	-26%	55%	76%	81%	107%	93%	89%	102%	94%	growth at 0.05 µM [21]: 103%; growth at 0.05 µM [22]: 100%; growth at 0.05 µM [23]: 83%; growth at 0.05 µM [24]: 102%; growth at 0.05 µM [25]: 104%; growth at 50 µM [26]: -31%; growth at 50 µM [27]: 3%; growth at 50 µM [28]: -43%; growth at 50 µM [29]: -20%; growth at 50 µM [30]: 5%; growth at 50 µM [31]: -50%; growth at 50 µM [32]: -59%; growth at 0.05 µM [33]: 112%; growth at 0.05 µM [34]: 64%; growth at 0.005 µM [35]: 99%; growth at 0.005 µM [36]: 87%; growth at 0.005 µM [37]: 104%; growth at 0.005 µM [38]: 97%
